Test results reported in patent US20040147578A1, “Use of lipoaminoacids as absorption promoters in a pharmaceutical composition” (priority 2001, published 2004).

Assay: In vitro permeation study in Franz cell
Assay type: in vitro ADME
Details: receiver pH 7.4
From the text: These studies have been carried out using the most commonly used model in in vitro permeation studies. It is the Franz cell which is made up of two compartments separated by a membrane:
a donor compartment in which the composition to be studied is placed,
a membrane preimpregnated with a lipidic solution, made up of a mixture of phospholipids,
a receiver compartment containing an aqueous solution buffered at pH 7.4 under constant agitation, in which the active principle is recovered at regular intervals. Depending on the case, the composition of the medium can vary with the physico-chemical characteristics of the molecule.
These permeation studies were carried out by comparing each dispersed system comprising the lipoamino acid(s) with a simple solution of active principle.
The permeation expresses an active principle quantity which diffuses through a membrane per unit of surface and time (μg/cm^2/h).

Row | Permeation (time 0 hours, aciclovir, topical-route system of Example 6 vs simple solution of active principle) | Permeation (time 1 hour, aciclovir, topical-route system of Example 6 vs simple solution of active principle) | Permeation (time 2 hours, aciclovir, topical-route system of Example 6 vs simple solution of active principle) | Permeation (time 3 hours, aciclovir, topical-route system of Example 6 vs simple solution of active principle) | Permeation (time 0 hours, progesterone, oral-route system of Example 3 vs simple solution of active principle) | Permeation (time 0 hours, progesterone, transdermic-route system of Example 4 vs simple solution of active principle) | Permeation (time 1 hour, progesterone, oral-route system of Example 3 vs simple solution of active principle) | Permeation (time 1 hour, progesterone, transdermic-route system of Example 4 vs simple solution of active principle) | Permeation (time 2 hours, progesterone, oral-route system of Example 3 vs simple solution of active principle) | Permeation (time 2 hours, progesterone, transdermic-route system of Example 4 vs simple solution of active principle) | Permeation (time 3 hours, progesterone, oral-route system of Example 3 vs simple solution of active principle) | Permeation (time 3 hours, progesterone, transdermic-route system of Example 4 vs simple solution of active principle) | SMILES
1 | 0 μg/cm^2/h | 2.35 μg/cm^2/h | 4.65 μg/cm^2/h | 5.80 μg/cm^2/h | – | – | – | – | – | – | – | – | Nc1nc2c(ncn2COCCO)c(=O)[nH]1 [Aciclovir]
2 | – | – | – | – | 0 μg/cm^2/h | 0 μg/cm^2/h | 0.2 μg/cm^2/h | 0.25 μg/cm^2/h | 0.4 μg/cm^2/h | 0.43 μg/cm^2/h | 0.8 μg/cm^2/h | 0.85 μg/cm^2/h | CC(=O)[C@H]1CC[C@H]2[C@@H]3CCC4=CC(=O)CC[C@]4(C)[C@H]3CC[C@]12C [Progesterone]
